According to PubChem BioAssay (NCI):
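These data come from cells grown in 96-well plates and exposed to compound for 48 hours at five concentrations. Abbreviation: GI50, concentration required for 50% inhibition of growth. TGI: total growth inhibition.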

Assays:
Experiment in all cases: NCI-60 cell line screen, 48 h
SW-620 colon = system: SW-620 colon
PC-3 prostate = system: PC-3 prostate
IGROV1 ovarian = system: IGROV1 ovarian
SK-OV-3 ovarian = system: SK-OV-3 ovarian
SNB-19 CNS = system: SNB-19 CNS
NCI-H226 lung = system: NCI-H226 lung
HL-60(TB) leukemia = system: HL-60(TB) leukemia
HCC-2998 colon = system: HCC-2998 colon
OVCAR-3 ovarian = system: OVCAR-3 ovarian
ACHN renal = system: ACHN renal

Row | SMILES | GI50 (SW-620 colon) | TGI (SW-620 colon) | GI50 (PC-3 prostate) | TGI (PC-3 prostate) | GI50 (IGROV1 ovarian) | TGI (IGROV1 ovarian) | GI50 (SK-OV-3 ovarian) | TGI (SK-OV-3 ovarian) | GI50 (SNB-19 CNS) | TGI (SNB-19 CNS) | GI50 (NCI-H226 lung) | TGI (NCI-H226 lung) | GI50 (HL-60(TB) leukemia) | TGI (HL-60(TB) leukemia) | GI50 (HCC-2998 colon) | TGI (HCC-2998 colon) | GI50 (OVCAR-3 ovarian) | TGI (OVCAR-3 ovarian) | GI50 (ACHN renal) | TGI (ACHN renal)
1 | CC1=C2[C@@H](CC1)[C@]1(C)O[C@@](C(C)C)(C[C@H]1OC(=O)CO)[C@H]2OC(=O)CCCc1ccccc1 | 11 µM | 25.4 µM | 3.63 µM | 16.1 µM | 3.71 µM | 14.1 µM | 16.6 µM | 30.6 µM | 12.4 µM | 24.9 µM | 6.04 µM | 22.9 µM | 2.21 µM | 5.27 µM | 12 µM | 24.6 µM | 6.94 µM | 22.5 µM | 7.02 µM | 19.3 µM
2 | CC1(C)N=c2cc3c(cc2N1c1ccc(Cl)cc1)=Nc1ccccc1N3c1ccc(Cl)cc1 | 4.68 µM | 21.9 µM | 2.45 µM | > 100 µM | 13.4 µM | > 100 µM | > 100 µM | > 100 µM | 58.2 µM | > 100 µM | 4.95 µM | > 100 µM | 1.74 µM | 4.2 µM | 17.8 µM | > 100 µM | 4.07 µM | 31.7 µM | 3.53 µM | > 100 µM
3 | CC1(C)CCc2c(c(N=Nc3ccccc3F)c3ccccc3c2O)O1 | 32.8 µM | > 100 µM | 59.8 µM | > 100 µM | 32.4 µM | > 100 µM | 25.7 µM | 75.9 µM | 36.8 µM | > 100 µM | 38.7 µM | > 100 µM | > 100 µM | > 100 µM | 22.6 µM | > 100 µM | 20.5 µM | 51.2 µM | 22 µM | 52.5 µM
4 | O=C1c2ccccc2C(=O)c2c1oc1c2c(=O)[nH]c2ccc(Cl)cc21 | 0.332 µM | 1.01 µM | 0.182 µM | 0.46 µM | 0.222 µM | 0.746 µM | 0.348 µM | 1.78 µM | 0.312 µM | 1.1 µM | 0.143 µM | 0.355 µM | 1.7 µM | 5.25 µM | 0.637 µM | 2.55 µM | 0.239 µM | 0.557 µM | 0.203 µM | 0.577 µM
5 | O=C(Nc1cccc(C(F)(F)F)c1)c1ccc(NC2=C(Cl)C(=O)N(Cc3ccccc3)C2=O)cc1 | 5.11 µM | > 100 µM | 14 µM | 27 µM | 2.01 µM | 4.63 µM | 25.7 µM | 82.6 µM | 20.4 µM | 40.5 µM | 16 µM | 35.8 µM | 2.08 µM | 5.64 µM | 1.29 µM | 2.85 µM | 2.09 µM | 4.63 µM | 15.3 µM | 29.5 µM
6 | C=CCOc1ccc(N)c([N+](=O)[O-])c1 | – | > 100 µM | – | > 100 µM | – | > 100 µM | – | > 100 µM | – | > 100 µM | – | > 100 µM | – | > 100 µM | – | > 100 µM | – | – | – | > 100 µM
7 | Cc1cc(=O)oc2cc3oc(N(C)c4ccccc4)nc(=O)c3cc12 | – | > 100 µM | – | > 100 µM | – | > 100 µM | – | > 100 µM | – | > 100 µM | – | > 100 µM | – | > 100 µM | – | > 100 µM | – | > 100 µM | – | > 100 µM
